Test results taken from patent US20110054029A1, “WATER-SOLUBLE DIETARY FATTY ACIDS” (priority 2009, published 2011).

Test system: Caco-2 cell monolayers
Assay: Permeability across Caco-2 cell monolayers
Type: in vitro ADME
Settings: Caco-2 monolayers after exposure to test article, 37° C.
Description: To test the permeability of dietary fatty acids across Caco-2 cell monolayers, Caco-2 cell monolayers are grown to confluence on collagen-coated, microporous, polycarbonate membranes in 12-well Costar Transwell® plates.
The test article is the aqueous dietary fatty acids formulation, and the dosing concentration is 2 μM in the assay buffer (HBSSg) as in the previous example. Cell monolayers are dosed on the apical side (A-to-B) or basolateral side (B-to-A) and incubated at 37° C. with 5% CO2 in a humidified incubator. Samples are taken from the donor chamber at 120 minutes, and samples from the receiver chamber are collected at 60 and 120 minutes. Each determination is performed in duplicate. Lucifer yellow permeability is also measured for each monolayer after being subjected to the test article to ensure no damage is inflicted to the cell monolayers during the permeability experiment. Permeability of samples of atenolol, propranolol and digoxin are also measured to compare with the permeability of the dietary fatty acids sample. All samples are assayed for dietary fatty acids, or corresponding comparative compounds, by LC/MS/MS using electrospray ionization. The apparent permeability (Papp) and percent recovery are calculated as is known in the art. […]

Papp (post-experiment monolayer integrity control): < 0.8 ×10⁻⁶ cm/s
Substance: Lucifer yellow
